This note sets out measurements from US8952030B2, “Morphinan derivative” (priority 2011, dated 2015).

Type in all cases: cell-based
One assay concerns the target T1, opioid δ receptor (Homo sapiens, UniProt P41143).
T1 construct: expressed in transfected cells; host or cells: CHO cells
The experiment in a line: Opioid receptor functional test (Lance Ultra cAMP Kit), δ receptor agonist activity. The following applies: for Emax: read-out: δ Receptor Emax. The procedure: (§1) Functional activities of the compounds of the present invention for the μ, […], and κ opioid receptors were investigated.
(§2) The test was performed according to a prescribed method by using Lance Ultra cAMP Kit (Perkin-Elmer). The agonist activities were evaluated as follows. The CHO cells expressing each opioid receptor (μ, δ, or κ) and a test compound were reacted in an assay buffer (1×HBSS, […], pH 7.4, […] IBMX (isobutylmethylxanthine), 7.5% BSA) for 30 minutes in the presence of 10 μM forskolin. Then, the cAMP detection reagent included in the kit was added, and after 1 hour, time-resolved fluorescence measurements were performed by using the EnVision plate reader (Perkin-Elmer). A dose-responce curve of the test compound was obtained from fluorescence values measured at 665 nm, and EC50 value and Emax value were calculated. The Emax value was calculated as a ratio of the maximum responce of the test compound with respect to the maximum responce of each control agent (SNC80 for δ, DAMGO for μ, U-69593 for κ) taken as 100%.
(§3) 1): Hydrochloride was used.

The target of the next assay is T2, opioid κ receptor (Homo sapiens, UniProt P41145).
T2 construct: expressed in transfected cells; host or cells: CHO cells
T2 sequence (P41145 whole entry): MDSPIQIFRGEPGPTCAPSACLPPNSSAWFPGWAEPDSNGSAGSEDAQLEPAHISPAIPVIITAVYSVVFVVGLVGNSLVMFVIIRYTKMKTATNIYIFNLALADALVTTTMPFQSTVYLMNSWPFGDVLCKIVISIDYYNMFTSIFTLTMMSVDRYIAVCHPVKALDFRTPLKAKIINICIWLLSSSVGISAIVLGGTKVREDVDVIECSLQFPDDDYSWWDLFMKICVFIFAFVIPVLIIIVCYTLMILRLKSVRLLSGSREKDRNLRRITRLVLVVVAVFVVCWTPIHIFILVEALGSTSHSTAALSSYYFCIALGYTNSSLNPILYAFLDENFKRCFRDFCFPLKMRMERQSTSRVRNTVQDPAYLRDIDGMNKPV
Put plainly: Opioid receptor functional test (Lance Ultra cAMP Kit), κ receptor agonist activity. The following applies: for EC50: CHO cells expressing κ opioid receptor, 10 μM forskolin, cAMP, read-out: κ Receptor EC50 value; for Emax at 10 µM: maximum concentration (10 μM), reaction did not reach the maximum, EC50 N.C., relative to U-69593. How it is done:
as §1, §2, §3

The next assay concerns the target T3, opioid μ receptor (Homo sapiens, UniProt P35372).
T3 construct: expressed in transfected cells; host or cells: CHO cells
Put plainly: Opioid receptor functional test (Lance Ultra cAMP Kit), μ receptor agonist activity. The following applies: for Emax at 10 µM: maximum concentration (10 μM), reaction did not reach the maximum, EC50 N.C., relative to DAMGO; for EC50: CHO cells expressing μ opioid receptor, 10 μM forskolin, cAMP. How it is done: as §1, §2, §3

[1] abbreviates: CHO cells expressing δ opioid receptor, 10 μM forskolin, cAMP, hydrochloride was used, read-out: δ Receptor EC50 value.
[2] abbreviates: maximum response relative to SNC80 taken as 100%, hydrochloride was used.
[3] abbreviates: maximum response relative to U-69593 taken as 100%, hydrochloride was used, read-out: κ Receptor Emax.
Setting [4] is: hydrochloride was used, read-out: μ Receptor responce rate at the maximum concentration (reference value).
Setting [5] is: maximum response relative to DAMGO taken as 100%, hydrochloride was used, read-out: μ Receptor Emax.
Setting [6] is: hydrochloride was used, read-out: κ Receptor responce rate at the maximum concentration (reference value).

Where two headings read alike, the source gives them in different places.

T1 sequence (P41143 whole entry): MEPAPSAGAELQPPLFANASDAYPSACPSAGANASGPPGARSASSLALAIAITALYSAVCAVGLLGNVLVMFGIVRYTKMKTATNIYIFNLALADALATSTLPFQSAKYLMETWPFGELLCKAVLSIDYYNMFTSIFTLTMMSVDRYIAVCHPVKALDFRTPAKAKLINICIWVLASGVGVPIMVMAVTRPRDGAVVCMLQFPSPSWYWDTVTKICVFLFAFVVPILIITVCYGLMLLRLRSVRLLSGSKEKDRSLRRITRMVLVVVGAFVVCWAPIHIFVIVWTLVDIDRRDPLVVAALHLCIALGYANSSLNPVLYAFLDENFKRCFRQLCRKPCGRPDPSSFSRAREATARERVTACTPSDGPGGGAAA
T3 sequence (P35372 whole entry): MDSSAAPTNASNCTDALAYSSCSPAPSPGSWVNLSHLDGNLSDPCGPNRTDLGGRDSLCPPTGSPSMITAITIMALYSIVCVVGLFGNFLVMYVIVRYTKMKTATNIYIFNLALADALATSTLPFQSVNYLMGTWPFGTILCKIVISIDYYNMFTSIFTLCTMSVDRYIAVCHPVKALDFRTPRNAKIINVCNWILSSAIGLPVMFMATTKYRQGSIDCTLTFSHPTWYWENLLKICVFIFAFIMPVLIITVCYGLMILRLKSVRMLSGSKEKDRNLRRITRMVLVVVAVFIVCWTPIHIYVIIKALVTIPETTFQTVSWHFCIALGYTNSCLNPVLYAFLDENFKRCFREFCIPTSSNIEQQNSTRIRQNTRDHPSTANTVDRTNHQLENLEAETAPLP

What is called EC50 is the concentration needed to bring the measured effect to its halfway point. For `Oc1ccc2c(c1)C13CCN(CC4CC4)C(C2)C12CCC1C3[C@@H](CN1c1nc(-c3ccccc3)cs1)C2` (stereo partly drawn) [Compound 242], the half-maximal effective concentration (EC50) was under 0.05 µM on opioid δ receptor (setting [1]) and over 0.01 µM at opioid κ receptor (hydrochloride was used). In addition, the values for the Emax on opioid δ receptor (setting [2]) and at opioid κ receptor (setting [3]) were 68% and 47%, respectively. Besides, on opioid μ receptor (setting [4]), the Emax at 10 µM came to 9.2%.
For `Oc1ccc2c(c1)[C@]13CCN(CC4CC4)[C@H](C2)[C@]12CC[C@@H]1[C@H]3[C@@H](CN1c1ccccc1)O2` [Compound 31, (1S,3aR,5aS,6R,11bR,11cS)-14-(cyclopropylmethyl)-3-phenyl-2,3,3a,4,5,6,7,11c-octahydro-1H-6,11b-(iminoethano)-1,5a-epoxynaphtho[1,2-e]indol-10-ol], the EC50 on opioid δ receptor (setting [1]) is under 0.01 µM; on opioid κ receptor (hydrochloride was used), over 0.001 µM. Further, the figures for the Emax on opioid δ receptor (setting [2]) and on opioid κ receptor (setting [3]) were 46% and 23%, respectively. The Emax at 10 µM at opioid μ receptor (setting [4]) was 14%.
On to `COc1cc2c(cc1[N+](=O)[O-])C[C@H]1N(CC3CC3)CC[C@@]23C2C4CC[C@@]13C[C@@H]2CN4c1nc(C)cc(C)n1` (stereo partly drawn) [Compound 311, (1S,5aS,6R,11bR)-14-(cyclopropylmethyl)-3-(4,6-dimethylpyrimidin-2-yl)-10-methoxy-9-nitro-2,3,3a,4,5,6,7,11c-octahydro-1H-6,11b-(iminoethano)-1,5a-methanonaphtho[1,2-e]indole], for which the EC50 at opioid δ receptor (setting [1]) was under 0.05 µM; on opioid κ receptor (hydrochloride was used), over 0.5 µM; at opioid μ receptor (hydrochloride was used) it was over 0.1 µM. In addition, the values for the Emax on opioid δ receptor (setting [2]), on opioid κ receptor (setting [3]) and on opioid μ receptor (setting [5]) were 82%, 16% and 18%, respectively.
On to `O=C(c1ccccc1)N1C[C@H]2O[C@@]34CC[C@@H]1[C@@H]2[C@@]31CCN(CC2CC2)[C@@H]4Cc2ccc(O)cc21` [Compound 10, [(1S,3aR,5aS,6R,11bR,11cS)-14-(cyclopropylmethyl)-10-hydroxy-1,2,3a,4,5,6,7,11c-octahydro-3H-6,11b-(iminoethano)-1,5a-epoxynaphtho[1,2-e]indol-3-yl](phenyl)methanone], for which the concentration for a half-maximal effect (EC50) on opioid δ receptor (setting [1]) is under 0.001 µM. The Emax on opioid δ receptor (setting [2]) came to 127%; on opioid κ receptor (read-out: κ Receptor responce rate at the maximum concentration (reference value)), 2.9%; at opioid μ receptor (read-out: μ Receptor responce rate at the maximum concentration (reference value)), 3.9%.
In the case of `NC(=O)c1ccc2c(c1)[C@]13CCN(CC4CC4)[C@H](C2)[C@]12CCC1C3[C@@H](CN1C(=O)c1ccccc1)O2` (stereo partly drawn) [Compound 306, (1S,5aS,6R,11bR)-3-benzoyl-14-(cyclopropylmethyl)-2,3,3a,4,5,6,7,11c-octahydro-1H-6,11b-(iminoethano)-1,5a-epoxynaphtho[1,2-e]indole-10-carboxamide], the EC50 at opioid δ receptor (setting [1]) is under 0.01 µM. Moreover, the Emax at opioid δ receptor (setting [2]) is 84%. For the same molecule, the Emax at 10 µM was 9.5% at opioid κ receptor (setting [6]) and 2.8% on opioid μ receptor (setting [4]).
With `C[C@H]1[C@H]2C[C@@]34CC[C@H]([C@@H]2[C@]32CCN(CC3CC3)[C@@H]4Cc3ccc(O)cc32)N1C(=O)c1ccccc1` [Compound 334, [(1S,2S,3aR,5aS,6R,11bS,11cS)-14-(Cyclopropylmethyl)-10-hydroxy-2-methyl-1,2,3a,4,5,6,7,11c-octahydro-3H-6,11b-(iminoethano)-1,5a-methanonaphtho[1,2-e]indol-3-yl](phenyl)methanone], the half-maximal effective concentration (EC50) on opioid δ receptor (setting [1]) was under 0.001 µM; at opioid κ receptor (hydrochloride was used) it was over 0.001 µM. In addition, the Emax at opioid δ receptor (setting [2]) was determined as 87%; on opioid κ receptor (setting [3]), 39%. At opioid μ receptor (setting [4]), the Emax at 10 µM is 2.9%.
Regarding `O=C(/C=C/c1ccccc1)N1C[C@H]2OC34CCC1C2C31CCN(CC2CC2)C4Cc2ccc(O)cc21` (stereo partly drawn) [Compound 57, (2E)-1-[(1S,3aR,5aS,6R,11bR,11cS)-14-(cyclopropylmethyl)-10-hydroxy-1,2,3a,4,5,6,7,11c-octahydro-3H-6,11b-(iminoethano)-1,5a-epoxynaphtho[1,2-e]indol-3-yl]-3-phenylpropenone], the EC50 on opioid δ receptor (setting [1]) was under 0.01 µM. Besides, the Emax on opioid δ receptor (setting [2]) was determined as 63%. Moreover, the Emax at 10 µM is 25% on opioid κ receptor (setting [6]) and 3% on opioid μ receptor (setting [4]).
For `O=C(N1CCCCC1)N1C[C@H]2CC34CCC1C2C31CCN(CC2CC2)C4Cc2ccc(O)cc21` (stereo partly drawn) [Compound 167], the values for the EC50 on opioid δ receptor (setting [1]) and on opioid κ receptor (hydrochloride was used) were under 0.001 µM and over 0.001 µM, respectively. Besides, the Emax was 96% at opioid δ receptor (setting [2]) and 22% at opioid κ receptor (setting [3]). For the same molecule, the Emax at 10 µM at opioid μ receptor (setting [4]) turned out to be 4.6%.
With `Cc1cc(C)nc(N2C[C@H]3C[C@@]45CCC2C3[C@@]42CCN(CC3CC3)[C@@H]5Cc3cccc(O)c32)n1` (stereo partly drawn) [Compound 293, (1S,5aS,6R,11bS)-14-(cyclopropylmethyl)-3-(4,6-dimethylpyrimidin-2-yl)-2,3,3a,4,5,6,7,11c-octahydro-1H-6,11b-(iminoethano)-1,5a-methanonaphtho[1,2-e]indol-11-ol], the EC50 was under 0.01 µM at opioid δ receptor (setting [1]), over 0.05 µM on opioid κ receptor (hydrochloride was used) and over 0.05 µM on opioid μ receptor (hydrochloride was used). In addition, the figures for the Emax at opioid δ receptor (setting [2]), at opioid κ receptor (setting [3]) and on opioid μ receptor (setting [5]) were 91%, 51% and 17%, respectively.
As for `CC(C)N(Cc1ccccc1)C(=O)N1C[C@H]2C[C@@]34CCC1C2[C@@]31CCN(CC2CC2)[C@@H]4Cc2ccc(O)cc21` (stereo partly drawn) [Compound 155, (1S,5aS,6R,11bR)—N-benzyl-14-(cyclopropylmethyl)-10-hydroxy-N-isopropyl-3a,4,5,6,7,11c-hexahydro-1H-6,11b-(iminoethano)-1,5a-methanonaphtho[1,2-e]indole-3(2H)-carboxamide], the values for the EC50 at opioid δ receptor (setting [1]) and at opioid κ receptor (hydrochloride was used) were under 0.001 µM and over 0.001 µM, respectively. Further, the Emax on opioid δ receptor (setting [2]) stood at 91%; at opioid κ receptor (setting [3]) it was 47%. The Emax at 10 µM at opioid μ receptor (setting [4]) was 3%.
For the molecule `O=C(c1ccccc1)N1C[C@H]2O[C@@]34CC[C@@H]1[C@@H]2[C@@]31CCN(CCO)[C@@H]4Cc2ccc(O)cc21` [Compound 27, [(1S,3aR,5aS,6R,11bR,11cS)-10-hydroxy-14-(2-hydroxyethyl)-1,2,3a,4,5,6,7,11c-octahydro-3H-6,11b-(iminoethano)-1,5a-epoxynaphtho[1,2-e]indol-3-yl](phenyl)methanone], the values for the EC50 at opioid δ receptor (setting [1]) and at opioid μ receptor (hydrochloride was used) were under 0.01 µM and over 0.05 µM, respectively. For the same molecule, the Emax at opioid δ receptor (setting [2]) came out at 95%; at opioid μ receptor (setting [5]), 34%. Besides, the Emax at 10 µM at opioid κ receptor (setting [6]) was 33%.
Turning to `Cc1cc(C)nc(N2C[C@H]3CC45CCC2C3C42CCN(C[C@H](C)O)C5Cc3ccc(O)cc32)n1` (stereo partly drawn) [Compound 285], the results for the 50% effective concentration (EC50) on opioid δ receptor (setting [1]), on opioid κ receptor (hydrochloride was used) and on opioid μ receptor (hydrochloride was used) were under 0.01 µM, over 0.1 µM and over 0.01 µM, respectively. Also, the values for the Emax on opioid δ receptor (setting [2]), at opioid κ receptor (setting [3]) and at opioid μ receptor (setting [5]) were 81%, 78% and 48%, respectively.
In the case of `CCCN1CC[C@@]23c4cc(O)ccc4C[C@@H]1[C@]21CC[C@@H]2[C@H]3[C@@H](CN2C(=O)c2ccccc2)C1` [Compound 83, [(1S,3aR,5aS,6R,11bR,11cS)-10-hydroxy-14-propyl-1,2,3a,4,5,6,7,11c-octahydro-3H-6,11b-(iminoethano)-1,5a-methanonaphtho[1,2-e]indol-3-yl](phenyl)methanone], the EC50 on opioid δ receptor (setting [1]) is under 0.001 µM. For the same molecule, at opioid δ receptor (setting [2]), the Emax turned out to be 99%. The Emax at 10 µM was 2.1% at opioid κ receptor (setting [6]) and 7.9% on opioid μ receptor (setting [4]).
`O=S(=O)(c1ccccc1)N1C[C@H]2O[C@@]34CC[C@@H]1[C@@H]2[C@@]31CCN(CC2CC2)[C@@H]4Cc2ccc(O)cc21` [Compound 58, (1S,3aR,5aS,6R,11bR,11cS)-3-benzenesulfonyl-14-(cyclopropylmethyl)-2,3,3a,4,5,6,7,11c-octahydro-1H-6,11b-(iminoethano)-1,5a-epoxynaphtho[1,2-e]indol-10-ol]: the 50% effective concentration (EC50) at opioid δ receptor is under 0.01 µM; at opioid μ receptor (hydrochloride was used), over 0.001 µM. Also, the Emax stood at 66% on opioid δ receptor and 54% on opioid μ receptor (setting [5]). Also, the Emax at 10 µM on opioid κ receptor (setting [6]) came to 19%.
